Data published in PMC4773988, “Structure-based Inhibitor Design for the Intrinsically Disordered Protein c-Myc” (Scientific Reports, 2016).

How the values were obtained:
Solubility in water = format: physicochemical
[1] = cited from earlier work

| Compound | Solubility in water (Solubility in water) | Cell penetration [1] |
| --- | --- | --- |
| O=C(NC(NC(=S)Nc1ccc(I)cc1)C(Cl)(Cl)Cl)OCc1ccccc1 (stereo not drawn) [PKUMDL-YC-1203] | less soluble in water |  |
| Cc1ccccc1C(=O)NC(NC(=S)Nc1cc(Cl)cc(Cl)c1Cl)C(Cl)(Cl)Cl (stereo not drawn) [PKUMDL-YC-1204] | less soluble in water |  |
| JY-3-094 |  | penetrates cells poorly |
